Tested on: HepG2 viability, ATP luminescence (CellTiter-Glo), 72 h
Experiment: HepG2 cell cytotoxicity, dose response, cytotoxicity control, luminescence, dry powder, set 12 (AID 743471)

| SMILES | AC35 [µM] |
| --- | --- |
| CCC(C)C(=O)OC1CC(C)C=C2C=CC(C)C(CCC(O)CC(O)CC(=O)O)C21 (configuration not stated) | 88 |
| COc1cccc2c1C(=O)c1c(O)c3c(c(O)c1C2=O)C[C@@](O)(C(=O)CO)C[C@@H]3O[C@H]1C[C@H](N)[C@H](O)[C@H](C)O1 | 0.0577 |
